# According to patent US10858366B2 (priority 2016, dated 2020):
# Target: RNP_CAL (PB2, PB1, PA, NP, influenza A Luciferase reporter in 293T cells) (Influenza A virus (strain swl A/California/04/2009 H1N1), UniProt C3W5S0)
# Assay: cell-based
row,Compound,EC50 [nM]
1,"O=c1cnn2c(c1O)-c1nccn1C[C@@H]2[C@@H](c1ccc(F)cc1)c1ccccc1Cl [Example 29, (S)-6-((S)-(2-chlorophenyl)(4-fluorophenyl)methyl)-11-hydroxy-5,6-dihydro-10H-imidazo[2′,1′:3,4]pyrazino[1,2-b]pyridazin-10-one]",72
2,"O=c1cnn2c(c1O)-c1nccn1C[C@@H]2[C@@H](c1ccc(F)cc1)c1cccc(Cl)c1 [Example 31, (S)-6-((S)-(3-chlorophenyl)(4-fluorophenyl)methyl)-11-hydroxy-5,6-dihydro-10H-imidazo[2′,1′:3,4]pyrazino[1,2-b]pyridazin-10-one]",37
3,"O=c1cnn2c(c1O)-c1nccn1C[C@@H]2[C@@H](c1ccc(F)cc1)c1ccc(C(F)(F)F)cc1 [Example 32, (S)-6-((R)-(4-fluorophenyl)(4-(trifluoromethyl)phenyl)methyl)-11-hydroxy-5,6-dihydro-10H-imidazo[2′,1′:3,4]pyrazino[1,2-b]pyridazin-10-one]",250
4,"O=c1cnn2c(c1O)-c1nccn1C[C@@H]2[C@@H](c1ccc(F)cc1)c1cc(F)cc(F)c1 [Example 34, (S)-6-((S)-(3,5-difluorophenyl)(4-fluorophenyl)methyl)-11-hydroxy-5H-imidazo[2′,1′:3,4]pyrazino[1,2-b]pyridazin-10(6H)-one]",25
5,"Cc1ccccc1[C@H](c1ccc(F)cc1Br)[C@H]1Cn2ccnc2-c2c(O)c(=O)cnn21 [Example 35, (S)-6-((R)-(2-bromo-4-fluorophenyl)(o-tolyl)methyl)-11-hydroxy-5,6-dihydro-10H-imidazo[2′,1′:3,4]pyrazino[1,2-b]pyridazin-10-one]",50
6,"O=c1cnn2c(c1O)-c1nccn1C[C@@H]2[C@H](c1cccc(F)c1)c1ccc(F)cc1Br [Example 36, (S)-6-((R)-(2-bromo-4-fluorophenyl)(3-fluorophenyl)methyl)-11-hydroxy-5,6-dihydro-10H-imidazo[2′,1′:3,4]pyrazino[1,2-b]pyridazin-10-one]",27
7,"CS(=O)(=O)c1cccc([C@H](c2ccc(F)cc2)[C@H]2Cn3ccnc3-c3c(O)c(=O)cnn32)c1 [Example 42, (S)-6-((S)-(4-fluorophenyl)(3-(methylsulfonyl)phenyl)methyl)-11-hydroxy-5,6-dihydro-10H-imidazo[2′,1′:3,4]pyrazino[1,2-b]pyridazin-10-one]",2800
8,"N#Cc1ccccc1[C@H](c1ccc(F)cc1)[C@H]1Cn2ccnc2-c2c(O)c(=O)cnn21 [Example 44, 2-((S)-(4-fluorophenyl)((S)-11-hydroxy-10-oxo-5,6-dihydro-10H-imidazo[2′,1′:3,4]pyrazino[1,2-b]pyridazin-6-yl)methyl)benzonitrile]",300
9,"N#Cc1ccc([C@H](c2ccc(F)cc2)[C@H]2Cn3ccnc3-c3c(O)c(=O)cnn32)cc1 [Example 45, 4-((R)-(4-fluorophenyl)((S)-11-hydroxy-10-oxo-5,6-dihydro-10H-imidazo[2′,1′:3,4]pyrazino[1,2-b]pyridazin-6-yl)methyl)benzonitrile]",42
10,"O=c1cnn2c(c1O)-c1nc(Br)c(Br)n1C[C@@H]2C(c1ccc(F)cc1)c1ccc(F)cc1 [Example 48, (S)-6-(bis(4-fluorophenyl)methyl)-2,3-dibromo-11-hydroxy-5,6-dihydro-10H-imidazo[2′,1′:3,4]pyrazino[1,2-b]pyridazin-10-one]",4300
11,"N#Cc1cnc2n1C[C@H](C(c1ccc(F)cc1)c1ccc(F)cc1)n1ncc(=O)c(O)c1-2 [Example 49, (S)-6-(bis(4-fluorophenyl)methyl)-11-hydroxy-10-oxo-5,6-dihydro-10H-imidazo[2′,1′:3,4]pyrazino[1,2-b]pyridazine-3-carbonitrile]",820
12,"O=c1cnn2c(c1O)-c1ncc(CO)n1C[C@@H]2C(c1ccc(F)cc1)c1ccc(F)cc1 [Example 50, (S)-6-(bis(4-fluorophenyl)methyl)-11-hydroxy-3-(hydroxymethyl)-5,6-dihydro-10H-imidazo[2′,1′:3,4]pyrazino[1,2-b]pyridazin-10-one]",100
13,"Cc1ccccc1[C@H](c1ccc(F)cc1)[C@H]1Cn2c(CO)cnc2-c2c(O)c(=O)cnn21 [Example 51, (S)-6-((S)-(4-fluorophenyl)(o-tolyl)methyl)-11-hydroxy-3-(hydroxymethyl)-5,6-dihydro-10H-imidazo[2′,1′:3,4]pyrazino[1,2-b]pyridazin-10-one]",90
14,"CC(O)c1cnc2n1C[C@H](C(c1ccccc1)c1ccccc1)n1ccc(=O)c(O)c1-2 (stereo partly drawn) [Example 55, (6S)-6-benzhydryl-11-hydroxy-3-(1-hydroxyethyl)-5H-imidazo[1,2-a]pyrido[2,1-c]pyrazin-10(6H)-one]",1700
15,"O=c1ccn2c(c1O)-c1ncc(CN3CCSCC3)n1C[C@@H]2C(c1ccccc1)c1ccccc1 [Example 62, (S)-6-benzhydryl-11-hydroxy-3-(thiomorpholinomethyl)-5,6-dihydro-10H-imidazo[1,2-a]pyrido[2,1-c]pyrazin-10-one]",640
16,"O=c1ccn2c(c1O)-c1ncc(CNC3CCOCC3)n1C[C@@H]2C(c1ccccc1)c1ccccc1 [Example 65, (S)-6-benzhydryl-11-hydroxy-3-(((tetrahydro-2H-pyran-4-yl)amino)methyl)-5,6-dihydro-10H-imidazo[1,2-a]pyrido[2,1-c]pyrazin-10-one]",3500
17,"C[C@@H](NCc1cnc2n1C[C@H](C(c1ccccc1)c1ccccc1)n1ccc(=O)c(O)c1-2)C(F)(F)F [Example 66, (S)-6-benzhydryl-11-hydroxy-3-((((R)-1,1,1-trifluoropropan-2-yl)amino)methyl)-5,6-dihydro-10H-imidazo[1,2-a]pyrido[2,1-c]pyrazin-10-one]",310
18,"O=C(NC1CC1)c1cnc2n1C[C@H](C(c1ccccc1)c1ccccc1)n1ccc(=O)c(O)c1-2 [Example 70, (S)-6-benzhydryl-N-cyclopropyl-11-hydroxy-10-oxo-5,6-dihydro-10H-imidazo[1,2-a]pyrido[2,1-c]pyrazine-3-carboxamide]",1700
19,"O=C(c1cnc2n1C[C@H](C(c1ccccc1)c1ccccc1)n1ccc(=O)c(O)c1-2)N1CCCC1 [Example 72, (S)-6-benzhydryl-11-hydroxy-3-(pyrrolidine-1-carbonyl)-5,6-dihydro-10H-imidazo[1,2-a]pyrido[2,1-c]pyrazin-10-one]",1700
20,"O=c1ccn2c(c1O)-c1nccn1C(C1CC1)N2C(c1ccccc1)c1ccccc1 (stereo not drawn) [Example 73, 6-benzhydryl-5-cyclopropyl-11-hydroxy-5,6-dihydro-10H-imidazo[1,2-d]pyrido[2,1-f][1,2,4]triazin-10-one]",170
21,"O=c1ccn2c(c1O)-c1nccn1CN2C1c2ccccc2CSc2ccccc21 (stereo not drawn) [Example 74, 6-(6,11-dihydrodibenzo[b,e]thiepin-11-yl)-11-hydroxy-5,6-dihydro-10H-imidazo[1,2-d]pyrido[2,1-f][1,2,4]triazin-10-one]",84
22,"O=c1ccn2c(c1O)-c1nccn1C(C1CC1)N2C1c2ccccc2CSc2ccccc21 (stereo not drawn) [Example 76, 5-cyclopropyl-6-(6,11-dihydrodibenzo[b,e]thiepin-11-yl)-11-hydroxy-5,6-dihydro-10H-imidazo[1,2-d]pyrido[2,1-f][1,2,4]triazin-10-one]",160
23,"O=c1ccn2c(c1O)-c1nccn1C1(COC1)N2C1c2ccccc2CSc2ccccc21 (stereo not drawn) [Example 80, 6-(6,11-dihydrodibenzo[b,e]thiepin-11-yl)-11-hydroxy-6H,10H-spiro[imidazo[1,2-d]pyrido[2,1-f][1,2,4]triazine-5,3′-oxetan]-10-one]",10
24,"O=c1ccn2c(c1O)-c1ncsc1CN2C(c1ccccc1)c1ccccc1 [Example 81, 5-benzhydryl-10-hydroxy-4,5-dihydro-9H-pyrido[1,2-b]thiazolo[4,5-d]pyridazin-9-one]",7000
25,"O=c1ccn2c(c1O)-c1ncoc1CN2C(c1ccccc1)c1ccccc1 [Example 83, 5-benzhydryl-10-hydroxy-4,5-dihydro-9H-oxazolo[4,5-d]pyrido[1,2-b]pyridazin-9-one]",970
26,"O=c1ccn2c(c1O)-c1ocnc1CN2C(c1ccccc1)c1ccccc1 [Example 84, 5-benzhydryl-10-hydroxy-4,5-dihydro-9H-oxazolo[5,4-d]pyrido[1,2-b]pyridazin-9-one]",11000
27,"CC(=O)Oc1c2n(ncc1=O)[C@@H](C(c1ccc(F)cc1)c1ccc(F)cc1)Cn1ccnc1-2 [Example 85, (S)-6-(bis(4-fluorophenyl)methyl)-10-oxo-5,6-dihydro-10H-imidazo[2′,1′:3,4]pyrazino[1,2-b]pyridazin-11-yl acetate]",22
28,"CC(C)C(=O)Oc1c2n(ncc1=O)[C@@H](C(c1ccc(F)cc1)c1ccc(F)cc1)Cn1ccnc1-2 [Example 86, (S)-6-(bis(4-fluorophenyl)methyl)-10-oxo-5,6-dihydro-10H-imidazo[2′,1′:3,4]pyrazino[1,2-b]pyridazin-11-yl isobutyrate]",21
29,"CC(C)CC(=O)Oc1c2n(ncc1=O)[C@@H](C(c1ccc(F)cc1)c1ccc(F)cc1)Cn1ccnc1-2 [Example 87, (S)-6-(bis(4-fluorophenyl)methyl)-10-oxo-5,6-dihydro-10H-imidazo[2′,1′:3,4]pyrazino[1,2-b]pyridazin-11-yl 3-methylbutanoate]",21
30,"COC(=O)OCOc1c2n(ncc1=O)[C@@H](C(c1ccc(F)cc1)c1ccc(F)cc1)Cn1ccnc1-2 [Example 88, (S)-((6-(bis(4-fluorophenyl)methyl)-10-oxo-5,6-dihydro-10H-imidazo[2′,1′:3,4]pyrazino[1,2-b]pyridazin-11-yl)oxy)methyl methyl carbonate]",42
